Laboratory results as given in patent publication US7276527B2, “5-pyridyl-1,3-azole compounds, process for producing the same and use thereof” (Takeda Pharmaceutical Company Limited, priority 1999, dated 2007).

Columns and labels:
[1] = target: T1, human adenosine A3 receptor (Homo sapiens, UniProt P0DMS8); test: Adenosine A3 receptor binding test; conditions: membrane fraction of A3AR/CHO strain, [3H]-NECA 10 nM, room temperature 1 hour; read-out: IC50 (concentration necessary for decreasing an amount of binding of [3H]-NECA to the membrane fraction by 50%)
T1 construct: expressed in transfected cells; membrane fraction
T1 sequence (P0DMS8 1-318): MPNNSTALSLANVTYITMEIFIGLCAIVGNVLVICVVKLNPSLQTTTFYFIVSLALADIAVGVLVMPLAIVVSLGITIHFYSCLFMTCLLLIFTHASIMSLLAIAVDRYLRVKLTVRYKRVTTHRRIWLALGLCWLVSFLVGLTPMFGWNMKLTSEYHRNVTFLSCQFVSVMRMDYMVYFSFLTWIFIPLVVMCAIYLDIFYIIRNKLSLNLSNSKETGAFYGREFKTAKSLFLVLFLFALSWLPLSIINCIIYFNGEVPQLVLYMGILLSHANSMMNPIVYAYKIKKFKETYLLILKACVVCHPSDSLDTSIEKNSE
Method: Genetic procedures were according to a method described in Molecular Cloning, published by Cold Spring Harbor, Laboratory, 1989 or a method described in the attached protocol of the reagent.
1) Cloning of Human Adenosine A3 Receptor
Cloning of an adenosine A3 receptor gene was performed from human brain cDNA by a PCR method. A PCR reaction was performed with a DNA thermal cycler 480 (Perkin Elmer) by using 1 ng of brain cDNA (Toyobo, QUICK-Clone cDNA) as a template, adding each 50 pmol of a primer set 5′-[…]-3′ (SEQ ID NO: 1) and 5′-[…]-3′ (SEQ ID NO: 2) made by reference to adenosine A3 receptor gene base sequence reported by Salvatore et al. (Proc. Natl. Acad. Sci. U.S.A., 90:10365-10369, 1993) and employing Takara LA PCR Kit Ver. 2 (Takara Shuzo) (reaction conditions: 35 cycles of 1 minute at 95° C., 1 minute at 66° C., 2 minutes at 75° C.). The resulting PCR product was subjected to agarose gel electrophoresis and 1.0 kb of DNA fragment was recovered and, thereafter, an adenosine A3 receptor gene was cloned using Original TA Cloning Kit (Funakoshi).
Next, the resulting plasmid was digested with a restriction enzyme XbaI (Takara Shuzo), treated with T4 DNA polymerase (Takara Shuzo) into end-blunted fragments and further digested with SalI (Takara Shuzo) to obtain adenosine A3 receptor gene fragments.
2) Preparation of a Plasmid for Expressing of Human Adenosine A3 Receptor […]

[2] = test system: TNF-α production in THP-1 cells; test: Measurement of inhibiting activity of TNF-α production; assay type: cell-based; conditions: Homo sapiens, LPS 5 μg/mL, 4 hours, TNF-α in supernatant by ELISA, read-out: IC50 (concentration necessary for inhibiting TNF-α production by 50%)
Method: Measurement of Inhibiting Activity of TNF-α Production
After THP-1 cells which had been cultured on PRMI 1640 medium (manufactured by Life Technologies, Inc.) containing 1% non-activated bovine fetal serum (manufactured by Life Technologies, Inc., U.S.A.) and 10 mM HEPES (pH 7.5) seeded on a 96-well plate to 1×10^5 cells/well, 1 μL test compound dissolved in DMSO was added to there. After incubation at 37° C. for 1 hour in a CO2 incubator, LPS (Wako Pure Chemicals) was added to the final concentration 5 μg/mL. After cultured at 37° C. for 4 hours in a CO2 incubator, the supernatant was obtained by centrifugation. The concentration of TNF-α in the supernatant was measured with ELISA (R&D System, Quantikine Kit). The concentration (IC50 value) necessary for inhibiting TNF-α production by 50% was calculated by PRIMS 2.01 (Graphpad Software).

Row | SMILES | melting point [°C] | other results
1 | Cc1cc(C)cc(-c2nc(N)sc2-c2ccnc(OCc3ccccc3)c2)c1 [Example 1, [4-(3,5-dimethylphenyl)-5-(2-phenylmethyloxy-4-pyridyl)-1,3-thiazol-2-yl]amine] | – | IC50 [1]: 11.6 nM
2 | COc1ccc(-c2nc(NC(=O)c3cccnc3)sc2-c2ccnc(NC(=O)c3cccnc3)c2)cc1 [Example 3, N-[4-(4-methoxypheny)-5-[2-[(3-pyridylcarbonylamino)]-4-pyridyl]-1,3-thiazol-2-yl]nicotinamide] | – | IC50 [2]: 26 nM
3 | COc1ccc(-c2nc(N)sc2-c2ccnc(NC(=O)c3ccccc3)c2)cc1 [Example 4, N-[4-[2-amino-4-(4-methoxyphenyl)-1,3-thiazol-5-yl]-2-pyridyl]benzamide] | – | IC50 [2]: 14 nM
4 | Cc1cc(C)cc(-c2nc(N)sc2-c2ccnc(NCc3ccccc3)c2)c1 [Example 6, N-[4-[2-amino-4-(3,5-dimethylphenyl)-1,3-thiazol-5-yl]-2-pyridyl]benzylamine] | – | IC50 [2]: 140 nM
5 | COc1cccc(CNc2cc(-c3sc(N)nc3-c3cccc(C)c3)ccn2)c1 [Example Compound 23-2, N-[4-[2-amino-4-(3-methylphenyl)-1,3-thiazol-5-yl]-2-pyridyl]-N-(3-methoxybenzyl)amine] | 152 to 154 | –
6 | COc1ccccc1CNc1cc(-c2sc(N)nc2-c2cccc(C)c2)ccn1 [Example Compound 23-3, N-[4-[2-amino-4-(3-methylphenyl)-1,3-thiazol-5-yl]-2-pyridyl]-N-(2-methoxybenzyl)amine] | 158 to 159 | –
7 | Cc1cccc(-c2nc(N)sc2-c2ccnc(NCc3ccc(Cl)cc3)c2)c1 [Example Compound 23-4, N-[4-[2-amino-4-(3-methylphenyl)-1,3-thiazol-5-yl]-2-pyridyl]-N-(4-chlorobenzyl)amine] | 182 to 183 | –
8 | Cc1cccc(-c2nc(N)sc2-c2ccnc(NCc3cccc(Cl)c3)c2)c1 [Example Compound 23-5, N-[4-[2-amino-4-(3-methylphenyl)-1,3-thiazol-5-yl]-2-pyridyl]-N-(3-chlorobenzyl)amine] | 180 to 181 | –
9 | Cc1cccc(-c2nc(N)sc2-c2ccnc(N[C@H](C)c3ccccc3)c2)c1 [Example Compound 23-6, (R)-N-[4-[2-amino-4-(3-methylphenyl)-1,3-thiazol-5-yl]-2-pyridyl]-N-(1-phenylethyl)amine] | 94 to 98 | –
10 | Cc1cccc(-c2nc(N)sc2-c2ccnc(N[C@@H](C)c3ccccc3)c2)c1 [Example Compound 23-7, (S)-N-[4-[2-amino-4-(3-methylphenyl)-1,3-thiazol-5-yl]-2-pyridyl]-N-(1-phenylethyl)amine] | 93 to 96 | –
11 | Cc1cccc(-c2nc(N)sc2-c2ccnc(N(C)Cc3ccccc3)c2)c1 [Example Compound 23-8, N-[4-[2-amino-4-(3-methylphenyl)-1,3-thiazol-5-yl]-2-pyridyl]-N-benzyl-N-methylamine] | 138 to 140 | –

More lines, main results first:

Row | melting point [°C] | SMILES | other results
12 | 217 to 218 | COc1cccc(-c2nc(N)sc2-c2ccnc(NCc3ccccc3)c2)c1 [Example Compound 24, N-[4-[2-amino-4-(3-methoxyphenyl)-1,3-thiazol-5-yl]-2-pyridyl]-N-benzylamine] | –
13 | 155 to 158 | Cc1cccc(-c2nc(-c3ccc(S(C)(=O)=O)cc3)sc2-c2ccnc(NCc3ccc(F)cc3)c2)c1 [Example Compound 25-2, N-(4-fluorobenzyl)-N-[4-[4-(3-methylphenyl)-2-(4-methylsulfonylphenyl)-1,3-thiazol-5-yl]-2-pyridyl]amine] | –
14 | 165 to 166 | Cc1cccc(-c2nc(-c3ccc(S(C)(=O)=O)cc3)sc2-c2ccnc(N(C)Cc3ccccc3)c2)c1 [Example Compound 25-3, N-benzyl-N-methyl-N-[4-[4-(3-methylphenyl)-2-(4-methylsulfonylphenyl)-1,3-thiazol-5-yl]-2-pyridyl]amine] | –
15 | 116 to 117 | Cc1cccc(-c2nc(-c3ccc(S(C)(=O)=O)cc3)sc2-c2ccnc(N(C)CCc3ccccc3)c2)c1 [Example Compound 25-4, N-methyl-N-[4-[4-(3-methylphenyl)-2-(4-methylsulfonylphenyl)-1,3-thiazol-5-yl]-2-pyridyl]-N-(2-phenylethyl)amine] | –
16 | 107 to 109 | Cc1cccc(-c2nc(-c3ccc(S(C)(=O)=O)cc3)sc2-c2ccnc(NCc3cccs3)c2)c1 [Example Compound 25-5, N-[4-[4-(3-methylphenyl)-2-(4-methylsulfonylphenyl)-1,3-thiazol-5-yl]-2-pyridyl]-N-(2-thienylmethyl)amine] | –
